# Results reported in ChEMBL document CHEMBL1144117, “Two new cytotoxic carbonimidic dichlorides from the nudibranch Reticulidia fungia” (J Nat Prod, 1999).
# How the values were obtained:
# KB = assay: Cytotoxicity against human KB cells after 72 hrs by MTT assay; assay type: functional, cell-based
# L1210 = assay: Cytotoxicity against mouse L1210 cells after 72 hrs by MTT assay; assay type: functional, cell-based; details: L1210, 72 h
Compound,IC50 (KB) [µg/mL],IC50 (L1210) [µg/mL]
CC1(C)[C@@H](Cl)[C@H](O)C[C@]2(C)C=C(/C=C/N=C(Cl)Cl)CC[C@@H]12 [RETICULIDIN A],0.41,0.59
CC1(C)[C@@H](Cl)[C@@H](O)C[C@]2(C)CC(/C=C/N=C(Cl)Cl)=CC[C@@H]12 [RETICULIDIN B],0.42,0.11
